The values below are quoted from earlier work in US6689595B1, “Crystallization and structure determination of Staphylococcus aureus thymidylate kinase” (Pharmacia & Upjohn Company, priority 1999, dated 2004).

For the data set, the target named is E. coli TMK (Escherichia coli, UniProt P0A720). As to conditions: from A. Lavie et al. 1998.
Sequence of E. coli TMK (P0A720 whole entry): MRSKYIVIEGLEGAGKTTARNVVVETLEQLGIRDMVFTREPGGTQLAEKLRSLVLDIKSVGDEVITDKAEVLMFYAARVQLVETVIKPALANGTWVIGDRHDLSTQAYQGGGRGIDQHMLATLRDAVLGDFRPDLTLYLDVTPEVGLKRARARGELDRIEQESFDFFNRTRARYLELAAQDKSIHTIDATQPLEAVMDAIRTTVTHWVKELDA

For `Cc1cn([C@H]2C[C@H](O)[C@@H](COP(=O)(O)OP(=O)(O)OP(=O)(O)OP(=O)(O)OP(=O)(O)OC[C@H]3O[C@@H](n4cnc5c(N)ncnc54)[C@H](O)[C@@H]3O)O2)c(=O)[nH]c1=O` [AP5T], the dissociation constant Kd is 20 nM.

What is called Kd is the concentration at which binding is half-saturated.
